Data on 29 molecules can be found in patent US8575156B2, “Cyclic inhibitors of 11β-hydroxysteroid dehydrogenase 1” (Vitae Pharmaceuticals, Inc., priority 2007, dated 2013).

The target of assay [1] is T1, 11β-HSD1 (Homo sapiens, UniProt P28845). Conditions: for Average % inhibition at 100 nM: 0.1 µM; for IC50: read-out: IC50 Range; for Average % inhibition at 111.1 nM: 111.1 nM compound, 0.1111 µM.
The target of assay [2] is T1, 11β-HSD1. Nature of the assay: biochemical. Conditions: for IC50: IC50 Range; for inhibition at 0.1111 µM: read-out: Average % inhibition at 111.1 nM, Biological Test Example 1, 111.1 nM.
The mark [3] stands for this setting: Biological Test Example 1, microsomes from CHO cells overexpressing human 11β-HSD1.
Where [4] appears, read: read-out: Average % inhibition at 100 nM, Biological Test Example 1, 100 nM.

Read-outs that look alike come from different tables or passages of the source.

What is called IC50 is the concentration needed to halve the response being measured. As a reminder, the inhibition is how much of the control response was suppressed.

T1 sequence (P28845 whole entry): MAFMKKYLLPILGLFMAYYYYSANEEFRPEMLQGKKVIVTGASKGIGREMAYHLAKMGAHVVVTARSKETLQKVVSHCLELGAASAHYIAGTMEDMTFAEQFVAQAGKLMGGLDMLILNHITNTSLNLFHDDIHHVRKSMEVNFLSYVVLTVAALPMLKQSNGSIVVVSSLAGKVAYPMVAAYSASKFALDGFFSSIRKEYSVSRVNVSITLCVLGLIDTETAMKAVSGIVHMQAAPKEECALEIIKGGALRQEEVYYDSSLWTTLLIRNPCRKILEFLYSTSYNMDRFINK

Turning to “3-((S)-1-(2′,4′-difluorobiphenyl-4-yl)ethyl)-6-(2-hydroxyethyl)-6-isopropyl-1,3-oxazinan-2-one [EXAMPLE 207 Isomer 1]”, at 11β-HSD1 [1], the “Average % inhibition at 100 nM” value is on record as 89.9% and the IC50 was < 0.1 µM. “3-((S)-1-(2′,4′-difluorobiphenyl-4-yl)ethyl)-6-(2-hydroxyethyl)-6-isopropyl-1,3-oxazinan-2-one [EXAMPLE 207 Isomer 2]”: on 11β-HSD1 [1], the “Average % inhibition at 100 nM” value is 89.3% and the IC50 was < 0.1 µM. With `C[C@@H](c1ccccc1)N1CCC(C)(c2ccccc2)OC1=O` (single isomer, unassigned) [EXAMPLE 82 Isomer 2], the “Average % inhibition at 111.1 nM” value on 11β-HSD1 [1] (Biological Test Example 1) stood at 89.2%. Also, the IC50 at 11β-HSD1 [1] (setting [3]) is < 0.1 µM. Regarding `C[C@H](c1ccccc1)N1CCC(C)(c2ccccc2)OC1=O` (single isomer, unassigned) [EXAMPLE 83 Isomer 2], the “Average % inhibition at 111.1 nM” value on 11β-HSD1 [1] (Biological Test Example 1) is 45.8%. In addition, at 11β-HSD1 [1] (setting [3]), the IC50 lay within 0.1 to 1 µM.

As for `C=CC1(c2ccc(F)cc2)CCN([C@@H](C)c2ccccc2)C(=O)O1` (single isomer, unassigned) [EXAMPLE 113 Isomer 2], at 11β-HSD1 [1] (Biological Test Example 1), the “Average % inhibition at 111.1 nM” value is 82.6%. Moreover, at 11β-HSD1 [1] (setting [3]), the IC50 is < 0.1 µM. In the case of `CC(O)C[C@]1(c2ccc(F)cc2)CCN([C@@H](C)c2ccc(-c3ccc(F)cc3F)cc2)C(=O)O1` (single isomer, unassigned) [EXAMPLE 137 Isomer 2], the IC50 on 11β-HSD1 [1] (setting [3]) was < 0.1 µM. Turning to `Cc1nnc(C[C@]2(c3ccccc3)CCN([C@@H](C)c3ccc(Br)cc3)C(=O)O2)o1` [EXAMPLE 530, (S)-3-((S)-1-(4-bromophenyl)ethyl)-6-((5-methyl-1,3,4-oxadiazol-2-yl)methyl)-6-phenyl-1,3-oxazinan-2-one], at 11β-HSD1 [2] (setting [3]), the IC50 is < 0.1 µM. For the same molecule, the inhibition at 0.1 µM at 11β-HSD1 [2] (setting [4]) turned out to be 73.3%. Consider `Cc1nnc(C[C@]2(c3ccccc3)CCN([C@@H](C)c3ccc(Br)cc3)C(=O)O2)s1` [EXAMPLE 531, (S)-3-((S)-1-(4-bromophenyl)ethyl)-6-((5-methyl-1,3,4-thiadiazol-2-yl)methyl)-6-phenyl-1,3-oxazinan-2-one], for which, on 11β-HSD1 [2] (setting [3]), the IC50 was < 0.1 µM. In addition, on 11β-HSD1 [2] (setting [4]), the inhibition at 0.1 µM worked out at 73.5%.

Consider `C[C@@H](c1ccc(C(F)(F)F)cc1)N1CC[C@](CCCO)(c2ccccc2)OC1=O` [EXAMPLE 532, (R)-6-(3-hydroxypropyl)-6-phenyl-3-((S)-1-(4-(trifluoromethyl)phenyl)ethyl)-1,3-oxazinan-2-one], for which the IC50 against 11β-HSD1 [2] (setting [3]) was < 0.1 µM. For the same molecule, the inhibition at 0.1 µM at 11β-HSD1 [2] (setting [4]) is 96.3%.

Consider `C[C@@H](c1ccc(Cl)c(F)c1)N1CC[C@](CCO)(c2ccc(F)cc2)OC1=O` [EXAMPLE 533, (S)-3-((S)-1-(4-chloro-3-fluorophenyl)ethyl)-6-(4-fluorophenyl)-6-(2-hydroxyethyl)-1,3-oxazinan-2-one], for which the IC50 against 11β-HSD1 [2] (setting [3]) was < 0.1 µM. The inhibition at 0.1 µM at 11β-HSD1 [2] (setting [4]) amounted to 94.5%. On to `C[C@@H](c1ccc(Cl)cc1F)N1CC[C@](CCCO)(c2ccc(F)cc2)OC1=O` [EXAMPLE 534, (R)-3-((S)-1-(4-chloro-2-fluorophenyl)ethyl)-6-(4-fluorophenyl)-6-(3-hydroxypropyl)-1,3-oxazinan-2-one], for which, on 11β-HSD1 [2] (setting [3]), the IC50 was < 0.1 µM. For the same molecule, the inhibition at 0.1 µM at 11β-HSD1 [2] (setting [4]) was determined as 98.5%. Turning to `C[C@@H](c1ccc(Cl)c(F)c1)N1CC[C@](CCCNS(C)(=O)=O)(c2ccc(F)cc2)OC1=O` [EXAMPLE 535, N-(3-((R)-3-((S)-1-(4-chloro-3-fluorophenyl)ethyl)-6-(4-fluorophenyl)-2-oxo-1,3-oxazinan-6-yl)propyl)methanesulfonamide], at 11β-HSD1 [2] (setting [3]), the IC50 is < 0.1 µM. Moreover, the inhibition at 0.1 µM on 11β-HSD1 [2] (setting [4]) was 96.8%.

Regarding `CC[C@@H](c1ccc(OC(F)F)cc1)N1CC[C@](CCC(N)=O)(c2ccccc2)OC1=O` [EXAMPLE 537, 3-((R)-3-((S)-1-(4-(difluoromethoxy)phenyl)propyl)-2-oxo-6-phenyl-1,3-oxazinan-6-yl)propanamide], on 11β-HSD1 [2] (setting [3]), the IC50 is < 0.1 µM. Also, at 11β-HSD1 [2] (setting [4]), the inhibition at 0.1 µM was 94.7%.

`Cc1cc(-c2ccc([C@H](C)N3CC[C@](CC(C)(C)O)(c4ccc(F)cc4)OC3=O)cc2)cc(C)[n+]1[O-]` [EXAMPLE 557, 4-(4-((S)-1-((S)-6-(4-fluorophenyl)-6-(2-hydroxy-2-methylpropyl)-2-oxo-1,3-oxazinan-3-yl)ethyl)phenyl)-2,6-dimethylpyridine 1-oxide]: the inhibition at 0.1111 µM on 11β-HSD1 [2] is 89.7%. In the case of `C[C@@H](c1ccc(-c2ccc(F)cc2)cc1)N1CC[C@](CC(C)(C)C(N)=O)(c2ccccc2)OC1=O` [EXAMPLE 568, 3-((R)-3-((S)-1-(4′-fluorobiphenyl-4-yl)ethyl)-2-oxo-6-phenyl-1,3-oxazinan-6-yl)-2,2-dimethylpropanamide], the IC50 on 11β-HSD1 [2] (setting [3]) was < 0.1 µM. The inhibition at 0.1 µM at 11β-HSD1 [2] (setting [4]) was found to be 97.7%. Consider `C[C@@H](c1ccc(Cl)cc1F)N1CC[C@](CC(C)(C)C(N)=O)(c2ccc(F)cc2)OC1=O` [EXAMPLE 578, 3-((R)-3-((S)-1-(4-chloro-2-fluorophenyl)ethyl)-6-(4-fluorophenyl)-2-oxo-1,3-oxazinan-6-yl)-2,2-dimethylpropanamide], for which the IC50 on 11β-HSD1 [2] (setting [3]) is < 0.1 µM. Also, the inhibition at 0.1 µM on 11β-HSD1 [2] (setting [4]) turned out to be 97.7%. For the molecule `C[C@@H](c1ccc(Br)cc1F)N1CC[C@](CCCO)(c2ccc(F)cc2)OC1=O` [EXAMPLE 581, (R)-3-((S)-1-(4-bromo-2-fluorophenyl)ethyl)-6-(4-fluorophenyl)-6-(3-hydroxypropyl)-1,3-oxazinan-2-one], the IC50 on 11β-HSD1 [2] (setting [3]) is < 0.1 µM. In addition, the inhibition at 0.1 µM on 11β-HSD1 [2] (setting [4]) turned out to be 96.4%.

As for `NC(=O)c1ccc(N2CCC[C@H](N3CC[C@](CCCO)(c4ccc(F)cc4)OC3=O)C2)nc1` [EXAMPLE 584, 6-((S)-3-((R)-6-(4-fluorophenyl)-6-(3-hydroxypropyl)-2-oxo-1,3-oxazinan-3-yl)piperidin-1-yl)nicotinamide], on 11β-HSD1 [2], the inhibition at 0.1111 µM was 77%. In the case of `CC(=O)N(C)CC[C@]1(c2ccccc2)CCN([C@@H](C)c2ccc(Br)cc2)C(=O)O1` [EXAMPLE 586, N-(2-((R)-3-((S)-1-(4-bromophenyl)ethyl)-2-oxo-6-phenyl-1,3-oxazinan-6-yl)ethyl)-N-methylacetamide], the IC50 against 11β-HSD1 [2] (setting [3]) was < 0.1 µM. In addition, the inhibition at 0.1 µM at 11β-HSD1 [2] (setting [4]) was found to be 98%.

`Cc1nnc(CC[C@]2(c3ccccc3)CCN([C@@H](C)c3ccc(Br)cc3)C(=O)O2)o1` [EXAMPLE 595, (R)-3-((S)-1-(4-bromophenyl)ethyl)-6-(2-(5-methyl-1,3,4-oxadiazol-2-yl)ethyl)-6-phenyl-1,3-oxazinan-2-one]: on 11β-HSD1 [2] (setting [3]), the IC50 was < 0.1 µM. For the same molecule, at 11β-HSD1 [2] (setting [4]), the inhibition at 0.1 µM worked out at 90.6%.

Turning to `Cc1nnc(CC[C@]2(c3ccccc3)CCN([C@@H](C)c3ccc(Br)cc3)C(=O)O2)s1` [EXAMPLE 601, (R)-3-((S)-1-(4-bromophenyl)ethyl)-6-(2-(5-methyl-1,3,4-thiadiazol-2-yl)ethyl)-6-phenyl-1,3-oxazinan-2-one], at 11β-HSD1 [2] (setting [3]), the IC50 is < 0.1 µM. The inhibition at 0.1 µM at 11β-HSD1 [2] (setting [4]) was 89.4%. In the same order, the values of `C[C@@H](c1ccc(Cl)cc1F)N1CC[C@](CCCNS(C)(=O)=O)(c2ccc(F)cc2)OC1=O` [EXAMPLE 602, N-(3-((R)-3-((S)-1-(4-chloro-2-fluorophenyl)ethyl)-6-(4-fluorophenyl)-2-oxo-1,3-oxazinan-6-yl)propyl)methanesulfonamide] are < 0.1 µM and 98.6%. Take `CC(=O)NCC(C)(C)C[C@]1(c2ccc(F)cc2)CCN([C@@H](C)c2ccc(Br)cc2)C(=O)O1` [EXAMPLE 605, N-(3-((R)-3-((S)-1-(4-bromophenyl)ethyl)-6-(4-fluorophenyl)-2-oxo-1,3-oxazinan-6-yl)-2,2-dimethylpropyl)acetamide]: the IC50 against 11β-HSD1 [2] (setting [3]) was < 0.1 µM. Also, the inhibition at 0.1 µM at 11β-HSD1 [2] (setting [4]) amounted to 85.8%.

Turning to `COC(=O)NC(C)(C)C[C@]1(c2ccc(F)cc2)CCN([C@@H](C)c2ccc(Br)cc2)C(=O)O1` [EXAMPLE 606, methyl 1-((S)-3-((S)-1-(4-bromophenyl)ethyl)-6-(4-fluorophenyl)-2-oxo-1,3-oxazinan-6-yl)-2-methylpropan-2-ylcarbamate], the IC50 at 11β-HSD1 [2] (setting [3]) is < 0.1 µM. The inhibition at 0.1 µM on 11β-HSD1 [2] (setting [4]) was 96.2%.

`C[C@@H](c1ccc(Br)cc1)N1CC[C@](CC(C)(C)CNS(C)(=O)=O)(c2ccc(F)cc2)OC1=O` [EXAMPLE 608, N-(3-((R)-3-((S)-1-(4-bromophenyl)ethyl)-6-(4-fluorophenyl)-2-oxo-1,3-oxazinan-6-yl)-2,2-dimethylpropyl)methanesulfonamide]: at 11β-HSD1 [2] (setting [3]), the IC50 was < 0.1 µM. In addition, the inhibition at 0.1 µM on 11β-HSD1 [2] (setting [4]) was found to be 84.7%. For the molecule `CCOC(=O)NCC[C@]1(c2ccc(F)cc2)CCN([C@@H](C)c2ccc(Br)cc2)C(=O)O1` [EXAMPLE 620, ethyl 2-((R)-3-((S)-1-(4-bromophenyl)ethyl)-6-(4-fluorophenyl)-2-oxo-1,3-oxazinan-6-yl)ethylcarbamate], the IC50 on 11β-HSD1 [2] (setting [3]) is < 0.1 µM. Also, on 11β-HSD1 [2] (setting [4]), the inhibition at 0.1 µM came to 68.7%. For the molecule `C[C@@H](c1ccc(Br)cc1)N1CC[C@](CC(C)(C)N)(c2ccc(F)cc2)OC1=O` [EXAMPLE 621, (S)-6-(2-amino-2-methylpropyl)-3-((S)-1-(4-bromophenyl)ethyl)-6-(4-fluorophenyl)-1,3-oxazinan-2-one], the IC50 against 11β-HSD1 [2] (setting [3]) is < 0.1 µM. Besides, the inhibition at 0.1 µM at 11β-HSD1 [2] (setting [4]) was determined as 78.3%. In the case of `CC(=O)NC(C)(C)C[C@]1(c2ccc(F)cc2)CCN([C@@H](C)c2ccc(Br)cc2)C(=O)O1` [EXAMPLE 626, N-(1-((S)-3-((S)-1-(4-bromophenyl)ethyl)-6-(4-fluorophenyl)-2-oxo-1,3-oxazinan-6-yl)-2-methylpropan-2-yl)acetamide], the IC50 against 11β-HSD1 [2] (setting [3]) is < 0.1 µM. For the same molecule, the inhibition at 0.1 µM on 11β-HSD1 [2] (setting [4]) was 94.8%. As for `C[C@@H](c1ccc(Br)cc1)N1CC[C@](CC(C)(C)NC(=O)C(C)(C)C)(c2ccccc2)OC1=O` [EXAMPLE 693, N-(1-((S)-3-((S)-1-(4-bromophenyl)ethyl)-2-oxo-6-phenyl-1,3-oxazinan-6-yl)-2-methylpropan-2-yl)pivalamide], the IC50 at 11β-HSD1 [2] (microsomes from CHO cells overexpressing human 11β-HSD1) is > 0.1 µM. For the same molecule, the inhibition at 0.1 µM on 11β-HSD1 [2] (read-out: Average % inhibition at 100 nM, 100 nM compound, microsomes from CHO cells overexpressing human 11β-HSD1) came to 17.6%.
